Measured values from ChEMBL document CHEMBL2086313, “Structure-based design of novel potent protein kinase CK2 (CK2) inhibitors with phenyl-azole scaffolds” (J Med Chem, 2012).

Columns and labels:
HCT-116 = assay: cells; settings: Homo sapiens, HCT-116, 72 h
A549 = assay: cells; settings: Homo sapiens, A549, 72 h
MCF7 = assay: Antiproliferative activity against human MCF7 cells after 72 hrs by MTS assay; settings: MCF7, 72 h
[1] = molecular target: Cyclin-dependent kinase 6 (Homo sapiens) (UniProt Q00534); assay: Inhibition of CDK6 at 3 uM
[2] = molecular target: RAC-alpha serine/threonine-protein kinase (Homo sapiens) (UniProt P31749); assay: Inhibition of AKT1 at 3 uM
[3] = molecular target: Receptor-type tyrosine-protein kinase FLT3 (Homo sapiens) (UniProt P36888); assay: Inhibition of FLT3 at 0.3 uM
[4] = molecular target: Dual specificity tyrosine-phosphorylation-regulated kinase 1B (Homo sapiens) (UniProt Q9Y463); assay: Inhibition of DYRK1B at 0.3 uM
[5] = molecular target: T1, Casein kinase II subunit alpha (Homo sapiens, UniProt P68400); assay: Competitive inhibition of GST fused human CK2alpha expressed in Escherichia coli BL21 after 10 mins in presence of ATP
[6] = molecular target: T2, Casein kinase II subunit alpha' (Homo sapiens, UniProt P19784); assay: Competitive inhibition of GST fused human CK2alpha' expressed in Escherichia coli BL21 after 10 mins in presence of ATP
[7] = molecular target: T1, Casein kinase II subunit alpha; assay: Inhibition of GST fused human CK2alpha expressed in Escherichia coli BL21 at 0.3 uM
[8] = molecular target: T2, Casein kinase II subunit alpha'; assay: Inhibition of GST fused human CK2alpha' expressed in Escherichia coli BL21 at 0.3 uM

Row | IC50 (HCT-116) [µM] | IC50 (A549) [µM] | IC50 (MCF7) [µM] | inhibition [1] [%] | inhibition [2] [%] | inhibition [3] [%] | inhibition [4] [%] | IC50 [5] [µM] | IC50 [6] [µM] | inhibition [7] [%] | inhibition [8] [%] | Compound
1 | 5.2 | 8.2 | 6.5 |  |  |  |  |  |  |  |  | O=C(O)c1ccc2c(c1)nc(Nc1cccc(Cl)c1)c1ccncc12 [SILMITASERTIB]
2 | > 30 | > 30 | > 30 |  |  |  |  |  |  |  |  | COc1ccc(C(=O)Nc2cc(-c3ccc(C(=O)O)cc3)[nH]n2)cc1
3 | 1.6 | 2.6 | 2.4 | 32 | 0.8 | 76 | 82 | 0.032 | 0.046 | 84 | > 100 | COc1ccc(C(=O)Nc2ncc(-c3ccc(C(=O)O)cc3)s2)cc1
4 | > 30 | > 30 | > 30 |  |  |  |  |  |  |  |  | COc1ccc(C(=O)Nc2nnc(-c3ccc(C(=O)O)cc3)s2)cc1
5 | 24 | 36 | 75 |  |  |  |  |  |  |  |  | O=C(O)Cc1ccn(-c2cncc(-n3ncc4ccc(NC5CCCC5)cc43)n2)c1
